Experimental data: ChEMBL document CHEMBL5725990, “Inhibitors of Bruton's tyrosine kinase” (2017)

Target: Tyrosine-protein kinase BTK (Homo sapiens, UniProt Q06187)
Assay: Btk In Vitro Inhibitory Assay: Human Btk kinase (Genbank accession # NP_000052) was purified from insect cells as a full-length construct containing a N-terminal 6×-His tag. Btk kinase activity was determined using a radiometric filter binding assay. Measurements are performed in a low μL reaction volume 384-well assay plates. BTK enzyme (8 nM final in reaction), inhibitor (at requested doses), and 0.2 mg/mL peptide substrate (Poly-Glu-Tyr, 4:1 ratio) are incubated in a reaction buffer composed of 20 mM Hepes (pH 7.5), 10 mM MgCl2, 1 mM EGTA, 0.02% Brij35, 0.02 mg/ml BSA, 0.1 mM Na3VO4, 2 mM DTT, 1% DMSO for 15 min. followed by addition of 1 μM ATP to start the assay. Kinase reactions are carried out for 120 min. at room temperature. The reaction was stopped by spotting of reaction sample onto P81 cationic exchange paper (Whatman). Unbound phosphate was removed by extensive washing of filters in 0.75% Phosphoric acid.

Chain of Tyrosine-protein kinase BTK (Q06187 whole entry): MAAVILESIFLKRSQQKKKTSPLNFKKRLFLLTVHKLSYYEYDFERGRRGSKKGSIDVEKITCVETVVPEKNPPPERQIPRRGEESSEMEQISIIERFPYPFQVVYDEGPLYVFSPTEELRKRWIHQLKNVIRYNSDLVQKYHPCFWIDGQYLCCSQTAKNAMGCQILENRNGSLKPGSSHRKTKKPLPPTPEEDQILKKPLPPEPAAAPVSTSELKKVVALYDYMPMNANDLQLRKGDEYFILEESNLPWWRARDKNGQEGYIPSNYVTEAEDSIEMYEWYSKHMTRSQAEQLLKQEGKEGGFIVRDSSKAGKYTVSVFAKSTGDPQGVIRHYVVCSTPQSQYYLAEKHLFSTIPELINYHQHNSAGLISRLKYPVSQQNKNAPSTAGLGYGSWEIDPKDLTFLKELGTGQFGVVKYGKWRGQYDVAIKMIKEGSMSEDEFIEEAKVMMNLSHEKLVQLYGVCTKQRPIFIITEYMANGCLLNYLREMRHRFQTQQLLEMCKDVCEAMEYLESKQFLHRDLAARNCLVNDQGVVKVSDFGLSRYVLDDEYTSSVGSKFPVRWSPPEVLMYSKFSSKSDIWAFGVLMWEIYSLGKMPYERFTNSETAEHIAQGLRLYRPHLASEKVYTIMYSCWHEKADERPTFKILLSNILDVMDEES

SMILES	IC50
NC(=O)c1ncc(N2CCC[C@@H](N3CCN(c4cccc(Cl)c4)C3=O)C2)nc1Nc1ccc(C2CCN(C3CCCC3)CC2)cc1	< 10 nM
NC(=O)c1nnc(N2CCC[C@@H](NC(=O)c3ccc4nccn4c3)C2)nc1Nc1ccc(C(=O)N2CCOCC2)cc1	< 10 nM
